# Results reported in patent US7256286B2, “Bryostatin analogues, synthetic methods and uses” (The Board of Trustees of the Leland Stanford Junior …, priority 1999, dated 2007).
# Tests used:
# PKCδ-C1B = target: T1, PKCδ-C1B (Mus musculus, UniProt P28867); assay: PKCδ-C1B assay; assay type: binding
# T1 construct: made in house
# Procedure: Phosphatidyl serine vesicles are prepared by the addition of phosphatidyl serine (10 mg/mL in chloroform, 0.4 mL) to a glass test tube followed by removal of the chloroform under a stream of nitrogen (5 min). […] The resulting solution is stored over ice. […] Stock solutions of compounds are diluted with absolute ethanol in glass in serial fashion. […] The tubes are incubated at 37° C. for 90 min. and then put on ice for 5 min. Each tube is then filtered separately through a pre-soaked filter disc. […] The filter is subsequently rinsed with cold 20 mM TRIS buffer (5 mL) dropwise. […] The filters are immediately counted in a scintillation counter (Beckman LS 6000SC). Counts per minute are averaged among three trials at each concentration.
# [1] = tested on: NCI human cancer cell-lines; assay: In vitro inhibition of growth in human cancer cell lines (all cell groups); assay type: cell-based; details: on average, all cell groups tested
# CCRF-CEM = assay: NCI human cancer cell line growth inhibition: CCRF-CEM; assay type: cell-based; details: Leukemia
# HL-60(TB) = assay: cells; assay type: cell-based, human
# K-562 = assay: NCI human cancer cell line growth inhibition: K-562; assay type: cell-based; details: K-562, Leukemia
# EKVX = assay: NCI human cancer cell line growth inhibition: EKVX; assay type: cell-based; details: NSC Lung
# HOP-62 = assay: NCI human cancer cell line growth inhibition: HOP-62; assay type: cell-based; details: Homo sapiens; HOP-62, NSC Lung
# NCI-H460 = assay type: cell-based, human; details: NCI-H460, NSC Lung
# COLO 205 = assay: NCI human cancer cell line growth inhibition: COLO 205; assay type: cell-based; details: COLO 205, Colon
# HCC-2998 = assay: NCI human cancer cell line growth inhibition: HCC-2998; assay type: cell-based; details: HCC-2998, Colon
# HCT-116 = assay: NCI human cancer cell line growth inhibition: HCT-116; assay type: cell-based; details: HCT-116, Colon
# HCT-15 = assay: NCI human cancer cell line growth inhibition: HCT-15; assay type: cell-based; details: Homo sapiens; HCT-15, Colon
# SF-268 = assay: NCI human cancer cell line growth inhibition: SF-268; assay type: cell-based; details: SF-268, CNS
# SF-539 = assay: NCI human cancer cell line growth inhibition: SF-539; assay type: cell-based; details: SF-539, CNS
# PC-3 = assay: NCI human cancer cell line growth inhibition: PC-3; assay type: cell-based; details: PC-3, Prostate
# LOX IMVI = assay: NCI human cancer cell line growth inhibition: LOX IMVI; assay type: cell-based; details: Melanoma
# SK-MEL-2 = assay: NCI human cancer cell line growth inhibition: SK-MEL-2; assay type: cell-based; details: SK-MEL-2, Melanoma
# SK-MEL-28 = assay: NCI human cancer cell line growth inhibition: SK-MEL-28; assay type: cell-based; details: SK-MEL-28, Melanoma
# UACC-62 = assay: NCI human cancer cell line growth inhibition: UACC-62; assay type: cell-based; details: UACC-62, Melanoma
# OVCAR-4 = assay: NCI human cancer cell line growth inhibition: OVCAR-4; assay type: cell-based; details: OVCAR-4, Ovarian
# OVCAR-5 = assay: NCI human cancer cell line growth inhibition: OVCAR-5; assay type: cell-based; details: OVCAR-5, Ovarian
# OVCAR-8 = assay: NCI human cancer cell line growth inhibition: OVCAR-8; assay type: cell-based; details: OVCAR-8, Ovarian
# SK-OV-3 = assay: NCI human cancer cell line growth inhibition: SK-OV-3; assay type: cell-based; details: SK-OV-3, Ovarian
# 786-0 = assay: NCI human cancer cell line growth inhibition: 786-0; assay type: cell-based; details: 786-0, Renal
# A498 = assay: NCI human cancer cell line growth inhibition: A498; assay type: cell-based; details: A498, Renal
# SN12C = assay: NCI human cancer cell line growth inhibition: SN12C; assay type: cell-based; details: Renal
# TK-10 = assay: NCI human cancer cell line growth inhibition: TK-10; assay type: cell-based; details: TK-10, Renal
# UO-31 = assay: NCI human cancer cell line growth inhibition: UO-31; assay type: cell-based; details: UO-31, Renal
# NCI/ADR-RES = assay type: cell-based, human; details: Homo sapiens, Breast, read-out: Growth inhibition (GI50) (converted)
# MDA-MB-231/ATCC = assay: NCI human cancer cell line growth inhibition: MDA-MB-231/ATCC; assay type: cell-based; details: Breast
# MDA-MB-435 = assay: NCI human cancer cell line growth inhibition: MDA-MB-435; assay type: cell-based
# BT-549 = assay: NCI human cancer cell line growth inhibition: BT-549; assay type: cell-based; details: BT-549, Breast
# T-47D = assay: NCI human cancer cell line growth inhibition: T-47D; assay type: cell-based; details: Breast
# T1 sequence (P28867 231-281 limits assumed): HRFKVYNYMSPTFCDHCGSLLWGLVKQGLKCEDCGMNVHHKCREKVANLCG
smiles,measurement,setting,value
CCCCCCCC(=O)O[C@H]1/C(=C/C(=O)OC)C[C@H]2C[C@H](CO)OC(=O)C[C@H](O)C[C@@H]3CCCC(CC4CCO[C@H](/C=C/C(C)(C)[C@]1(O)O2)O4)O3 [Formula IIa (702.1)],Ki,PKCδ-C1B,0.0003 ± 7e-05 µM
same,activity in PKCδ-C1B assay compared with other analogues,"PKCδ-C1B; 702.1 vs corresponding C26 methyl-containing analogue, 48, 49 among C20 ester analogues",significantly higher activity
same,potency compared with bryostatin-1,[1],"at least as potent, on average, as bryostatin-1"
same,GI50,CCRF-CEM; Homo sapiens,1.55 µM
same,Difference (GI50 desmethyl vs Bryo-1),CCRF-CEM,−0.51
same,Difference (GI50 desmethyl vs Bryo-1),HL-60(TB),−0.14
same,GI50,"HL-60(TB); Homo sapiens, HL-60, read-out: Growth inhibition (GI50)",1.45 µM
same,GI50,"K-562; Homo sapiens, K562",0.0316 µM
same,Difference (GI50 desmethyl vs Bryo-1),K-562,−2.10
same,more active than bryostatin-1 by,K-562,more than 2 orders of magnitude
same,GI50,EKVX; Homo sapiens,2.63 µM
same,Difference (GI50 desmethyl vs Bryo-1),EKVX,−0.28
same,GI50,HOP-62,16.2 µM
same,GI50,"NCI-H460; Homo sapiens, read-out: Growth inhibition (GI50)",< 0.01 µM
same,Difference (GI50 desmethyl vs Bryo-1),NCI-H460,−2.40
same,more active than bryostatin-1 by,NCI-H460,more than 2 orders of magnitude
same,Difference (GI50 desmethyl vs Bryo-1),COLO 205,−1.68
same,GI50,COLO 205; Homo sapiens,0.0832 µM
same,Difference (GI50 desmethyl vs Bryo-1),HCC-2998,−2.24
same,more active than bryostatin-1 by,HCC-2998,more than 2 orders of magnitude
same,GI50,HCC-2998; Homo sapiens,0.0288 µM
same,Difference (GI50 desmethyl vs Bryo-1),HCT-116,−0.02
same,GI50,HCT-116; Homo sapiens,4.79 µM
same,GI50,HCT-15,17.4 µM
same,GI50,SF-268; Homo sapiens,10.7 µM
same,Difference (GI50 desmethyl vs Bryo-1),SF-268,0.13
same,GI50,SF-539; Homo sapiens,1.7 µM
same,Difference (GI50 desmethyl vs Bryo-1),SF-539,−0.77
same,GI50,PC-3; Homo sapiens,2.51 µM
same,Difference (GI50 desmethyl vs Bryo-1),PC-3,−0.30
same,GI50,LOX IMVI; Homo sapiens,3.39 µM
same,Difference (GI50 desmethyl vs Bryo-1),LOX IMVI,−0.37
same,GI50,SK-MEL-2; Homo sapiens,9.55 µM
same,Difference (GI50 desmethyl vs Bryo-1),SK-MEL-2,0.18
same,GI50,SK-MEL-28; Homo sapiens,21.4 µM
same,Difference (GI50 desmethyl vs Bryo-1),SK-MEL-28,0.43
same,GI50,UACC-62; Homo sapiens,7.76 µM
same,Difference (GI50 desmethyl vs Bryo-1),UACC-62,0.19
same,GI50,OVCAR-4; Homo sapiens,7.08 µM
same,Difference (GI50 desmethyl vs Bryo-1),OVCAR-4,0.35
same,GI50,OVCAR-5; Homo sapiens,5.25 µM
same,Difference (GI50 desmethyl vs Bryo-1),OVCAR-5,−0.28
same,GI50,OVCAR-8; Homo sapiens,17 µM
same,Difference (GI50 desmethyl vs Bryo-1),OVCAR-8,0.33
same,GI50,SK-OV-3; Homo sapiens,50.1 µM
same,Difference (GI50 desmethyl vs Bryo-1),SK-OV-3,0.80
same,Difference (GI50 desmethyl vs Bryo-1),786-0,−0.26
same,GI50,786-0; Homo sapiens,3.47 µM
same,Difference (GI50 desmethyl vs Bryo-1),A498,−1.38
same,GI50,A498; Homo sapiens,0.417 µM
same,GI50,SN12C; Homo sapiens,2.57 µM
same,Difference (GI50 desmethyl vs Bryo-1),SN12C,−0.49
same,GI50,TK-10; Homo sapiens,0.0933 µM
same,Difference (GI50 desmethyl vs Bryo-1),TK-10,−2.03
same,more active than bryostatin-1 by,TK-10,more than 2 orders of magnitude
same,GI50,UO-31; Homo sapiens,14.1 µM
same,Difference (GI50 desmethyl vs Bryo-1),UO-31,0.75
same,GI50,NCI/ADR-RES,18.2 µM
same,Difference (GI50 desmethyl vs Bryo-1),MDA-MB-231/ATCC,−0.49
same,GI50,MDA-MB-231/ATCC; Homo sapiens,2.04 µM
same,GI50,"MDA-MB-435; Homo sapiens, MDA-MB-435, Breast",0.0219 µM
same,more active than bryostatin-1 by,MDA-MB-435; MDA-MB435 (breast),more than 2 orders of magnitude
same,Difference (GI50 desmethyl vs Bryo-1),"MDA-MB-435; MDA-MB-435, Breast",−2.56
same,Difference (GI50 desmethyl vs Bryo-1),BT-549,0.39
same,GI50,BT-549; Homo sapiens,19.5 µM
same,Difference (GI50 desmethyl vs Bryo-1),T-47D,0.18
same,GI50,"T-47D; Homo sapiens, T47D",9.55 µM
